Experiment: Saturated solubility testing in butanone and ethanol
Format: physicochemical
Settings: for Solubility (w/w) in butanone: solvent butanone; for Solubility (w/w) in ethanol: solvent ethanol

## O=[N+]([O-])c1ccc2c(c1)/N=N/c1c(ccc3ccccc13)[O][Fe]1([O]2)[O]c2ccc([N+](=O)[O-])cc2/N=N/c2c(ccc3ccccc23)[O]1 [Example 59]
  Solubility (w/w) in butanone: 6% (w/w)
  Solubility (w/w) in ethanol: <1% (w/w)

## O=[N+]([O-])c1ccc2c(c1)[O][Fe]1([O]c3cc([N+](=O)[O-])ccc3/N=N/c3c(ccc4ccccc34)[O]1)[O]c1ccc3ccccc3c1/N=N/2 [Example 29]
  Solubility (w/w) in butanone: 50% (w/w)
  Solubility (w/w) in ethanol: <1% (w/w)

## CCC(C)(C)c1cc2c(c([N+](=O)[O-])c1)[O][Fe]1([O]c3ccc4ccccc4c3/N=N/2)[O]c2ccc3ccccc3c2/N=N/c2cc(C(C)(C)CC)cc([N+](=O)[O-])c2[O]1 [Example 60]
  Solubility (w/w) in butanone: ≥20% (w/w)
  Solubility (w/w) in ethanol: <2% (w/w)

— US20240199881A1, “METAL COMPLEX DYES FOR INKJET PRINTING” (Videojet Technologies Inc., priority 2021, published 2024)
